Test results as given in patent US7598393B2 (dated 2009).
Counter-ions that a name gives are not always drawn.

Row | Compound | melting point [°C]
1 | CC(C)S(=O)(=O)c1ccc2c(c1)nc(CC(C)(C)C)n2CCN(C)C | 116
2 | CCS(=O)(=O)c1ccc2c(c1)nc(CC(C)(C)C)n2CC1CCCO1 (stereo not drawn) | 142
3 | CC(C)S(=O)(=O)c1cnc2c(c1)nc(CC(C)(C)C)n2CC1(O)CCOCC1 | 179
4 | CC(C)S(=O)(=O)c1ccc2c(c1)nc(CC(C)(C)C)n2CC1(O)CCOCC1 | 189
5 | CC(C)S(=O)(=O)c1cnc2c(c1)nc(CC(C)(C)C)n2CCN(C)C | 119
6 | CC(C)S(=O)(=O)c1ccc2c(c1)nc(CC1CC1)n2CC1CC1 | 107
7 | CCS(=O)(=O)c1ccc2c(c1)nc(CC(C)(C)C)n2CC1(O)CCCC1 | 172
8 | CC(C)S(=O)(=O)c1ccc2c(c1)nc(CC1(C)CCCC1)n2CC1CC1 | 122
9 | CC(C)S(=O)(=O)c1ccc2c(c1)nc(CC1CCCC1)n2CC1CC1 | 137
10 | CC(C)S(=O)(=O)c1ccc2c(c1)nc(CC(C)(C)C)n2CCN1CCOCC1 | 151
11 | CC(C)S(=O)(=O)c1cnc2c(c1)nc(CC(C)(C)C)n2CC1CCOCC1 | 201
12 | CCS(=O)(=O)c1cnc2c(c1)nc(CC(C)(C)C)n2CC1CCOCC1 | 191
13 | CC(C)(C)Cc1nc2cc(S(C)(=O)=O)ccc2n1CC1CC1 (as salt: hydrochloride) | 217
14 | CC(C)(C)Cc1nc2cc(S(=O)(=O)c3ccccc3)ccc2n1CC1CC1 | 173
15 | CCS(=O)(=O)c1ccc2c(c1)nc(CC(C)(C)C)n2CCOC(F)(F)F | 133
